In publication PMC9273935, “Cooperative Binding of Substrate and Ions Drives Forward Cycling of the Human Creatine Transporter-1” (Frontiers in Physiology, 2022):

Columns and labels:
[1] = molecular target: T1, human creatine transporter-1 (CRT-1, SLC6A8), C-terminally YFP-tagged (Homo sapiens, UniProt P48029); experiment: whole-cell patch clamp, substrate-induced transport current in transfected HEK293 cells; type: cell-based
T1 construct: full-length cDNA in pEYFP-N1, C-terminal YFP tag, transiently expressed in HEK293 cells; oligomeric state not known
T1 sequence (P48029 1-635): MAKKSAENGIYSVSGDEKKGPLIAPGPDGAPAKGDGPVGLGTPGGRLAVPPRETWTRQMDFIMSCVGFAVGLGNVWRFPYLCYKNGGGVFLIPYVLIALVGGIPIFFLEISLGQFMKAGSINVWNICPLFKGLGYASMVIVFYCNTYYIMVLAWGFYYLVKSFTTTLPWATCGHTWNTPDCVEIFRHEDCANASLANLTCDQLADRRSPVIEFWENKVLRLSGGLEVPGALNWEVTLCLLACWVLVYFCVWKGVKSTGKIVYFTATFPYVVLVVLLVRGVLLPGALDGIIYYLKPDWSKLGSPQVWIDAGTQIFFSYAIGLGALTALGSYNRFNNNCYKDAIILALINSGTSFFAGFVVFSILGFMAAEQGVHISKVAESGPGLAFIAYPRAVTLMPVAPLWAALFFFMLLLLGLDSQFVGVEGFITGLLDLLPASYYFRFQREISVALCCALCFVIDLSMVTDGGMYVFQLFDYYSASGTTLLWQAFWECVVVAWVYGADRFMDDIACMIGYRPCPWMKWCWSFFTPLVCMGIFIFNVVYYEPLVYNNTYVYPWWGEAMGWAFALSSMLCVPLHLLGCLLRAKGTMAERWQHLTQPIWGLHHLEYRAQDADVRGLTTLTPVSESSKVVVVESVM

[2] = molecular target: T1, human creatine transporter-1 (CRT-1, SLC6A8), C-terminally YFP-tagged; experiment: inhibition of [3H]creatine uptake in transfected HEK293 cells; type: cell-based

EC50 [1] | IC50 [2] | SMILES
34.8 ± 1.9 µM | 48.4 ± 7 µM | CN(CC(=O)O)C(=N)N [creatine]
103 ± 4 µM | 105 ± 6.7 µM | NC1=NCC(C(=O)O)CN1 (centres unmarked) [ATPCA, 2-amino-1,4,5,6-tetrahydropyrimidine-5-carboxylic acid]
162 ± 8.49 µM | 167 ± 9.9 µM | NC1=NCCN1CC(=O)O [cyclocreatine]
13.2 ± 0.73 µM | 18.8 ± 1.1 µM | N=C(N)NCCC(=O)O [β-guanidinopropionic acid]
